SMILES strings stand for the structures.

The target of the first assay is T1, human glycolate oxidase (hGO) (Homo sapiens, UniProt Q9UJM8).
T1 construct: His-tag (6 histidines, pET-15b) (N); made in house; host or cells: E. coli BL21 (DE3)
T1 sequence (Q9UJM8 1-370): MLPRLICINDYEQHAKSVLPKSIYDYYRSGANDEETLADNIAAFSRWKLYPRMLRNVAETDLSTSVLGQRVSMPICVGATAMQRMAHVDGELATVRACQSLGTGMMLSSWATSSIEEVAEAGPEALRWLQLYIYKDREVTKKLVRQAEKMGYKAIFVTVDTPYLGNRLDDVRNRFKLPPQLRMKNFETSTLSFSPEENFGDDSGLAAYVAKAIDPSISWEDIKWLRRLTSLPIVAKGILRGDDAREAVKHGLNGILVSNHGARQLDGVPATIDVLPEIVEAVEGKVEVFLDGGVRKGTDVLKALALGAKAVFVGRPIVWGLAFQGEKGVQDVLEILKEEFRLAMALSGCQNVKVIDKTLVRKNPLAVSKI
Briefly: In vitro inhibition of human glycolate oxidase (enzymatic assay, HRP-coupled Trinder reaction).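 As to % Inhibition: values are IC50 potency bins despite the % Inhibition label.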 Format: biochemical.
Details: not given
An excerpt: The catalytic reactions used for assaying glycolate oxidase activity in the presence of compounds according to the present disclosure are outlined in FIG. 2. Glycolate oxidase (GO)-catalyzed conversion of glycolate to glyoxylate (top reaction), with the concomitant reduction of the cofactor flavin mononucleotide (FMN), uses molecular oxygen (O2) for recovering its oxidative state, releasing hydrogen peroxide (H2O2). The Trinder reaction (bottom reaction), in which horseradish peroxidase (HRP) uses hydrogen peroxide, 4-aminoantipyrine and a phenol derivative (sulphonated DCIP) to generate a quinoneimine dye that is spectrophotometrically measured.
Human glycolate oxidase (hGO) expression. BL21 (DE3) E. coli transformed with recombinant pET-15b expression vector with the N-terminal His-tag human Hao1 cDNA was grown in LB medium in the presence of 0.1 mg/ml ampicillin. For purification of recombinant human glycolate oxidase (hGO) expressed in BL21 E. coli, bacteria pellets were thawed and re-suspended in 2 ml lysis buffer (50 mM NaH2PO4, 300 mM NaCl, 10 mM imidazole, 50 μM FMN, pH 7.5), and then treated for 30 minutes with 1 mM PMSF for protease inhibition, 0.1% Triton X-100 and 0.2 mg/ml lysozyme to break cellular membranes. After sonication, cells were centrifuged and the supernatant containing the total cellular extract (pre-column fraction) was loaded into a Ni-NTA agarose column and incubated for 30 minutes at 4° C. to allow binding of the 6 histidine tail of recombinant GO protein to the nickel ions. The column was washed with two bed volumes of lysis buffer with 20 mM imidazole to eliminate unbound proteins (wash fraction). GO was eluted using the same buffer with 300 mM imidazole. Fraction containing purified GO was dialyzed against 300 ml of dialysis buffer (50 mM NaH2PO4, 300 mM NaCl, pH 7.5) at 4° C. in agitation overnight, and then kept at 4° C. in darkness. Protein were quantified by the bicinchoninic acid (BCA) assay.
Enzymatic assays. Enzymatic activity of hGO was determined in the presence of glycolate as substrate (40 mM glycolic acid) and phosphate buffer (50 mM KPO4, 0.1 mM EDTA, pH 7). The production of glyoxylate was indirectly measured by the quantification of hydrogen peroxide formed during the first oxidation reaction. […] Enzymatic activity was calculated at 1 minute after initiation of the Trinder reaction.
In turn, `O=C(O)c1nn[nH]c1Oc1ccc(-c2ccc(Br)cc2)cc1` [Example 10, 5-((4′-bromo-[1,1′-biphenyl]-4-yl)oxy)-1H-1,2,3-triazole-4-carboxylic Acid] gave an IC50 below 100 nM.

Staying with this assay, now noted: recombinant hGO, 40 mM glycolic acid, pH 7, read at 515 nm, 1 minute after initiation of Trinder reaction; read-out: % Inhibition.
In the case of `O=C(O)c1[nH]nnc1Oc1ccc(C2CCC(F)(F)CC2)cc1` [Example 87, 5-(4-(4,4-difluorocyclohexyl)phenoxy)-1H-1,2,3-triazole-4-carboxylic Acid], the IC50 is 100 to 200 nM.

On to `COc1ccc(-c2ccc(Oc3[nH]nnc3C(=O)O)cc2OC)cn1` [Example 90, 5-(3-methoxy-4-(6-methoxypyridin-3-yl)phenoxy)-1H-1,2,3-triazole-4-carboxylic Acid], for which the IC50 is below 100 nM.

On to `CC(C)c1ccc(-c2cccc(Oc3[nH]nnc3C(=O)O)c2)cc1` [Example 111, 5-((4′-isopropyl-[1,1′-biphenyl]-3-yl)oxy)-1H-1,2,3-triazole-4-carboxylic Acid], for which the IC50 was 100 to 200 nM.

For the compound `Cc1ccc(-c2ccc(Oc3[nH]nnc3C(=O)O)cc2)cn1` [Example 84, 5-(4-(6-methylpyridin-3-yl)phenoxy)-1H-1,2,3-triazole-4-carboxylic Acid], the IC50 is 100 to 200 nM.

Regarding `Cc1cc(-c2ccc(Oc3[nH]nnc3C(=O)O)cc2)cnc1F` [Example 82, 5-(4-(6-fluoro-5-methylpyridin-3-yl)phenoxy)-1H-1,2,3-triazole-4-carboxylic Acid], the IC50 was below 100 nM.

For the compound `Cc1cc(Oc2[nH]nnc2C(=O)O)ccc1-c1cccnc1F` [Example 72, 5-(4-(2-fluoropyridin-3-yl)-3-methylphenoxy)-1H-1,2,3-triazole-4-carboxylic Acid], the IC50 was below 100 nM.

For `Cc1cc(Oc2[nH]nnc2C(=O)O)ccc1-c1cnc(F)c(C)c1` [Example 86, 5-(4-(6-fluoro-5-methylpyridin-3-yl)-3-methylphenoxy)-1H-1,2,3-triazole-4-carboxylic Acid], the IC50 lay within 100 to 200 nM.

As to `O=C(O)c1nn[nH]c1Oc1ccc(C2CCC3(CC2)CC3(F)F)cc1` (centres unmarked) [Example 126, 5-(4-(1,1-Difluorospiro[2.5]octan-6-yl)phenoxy)-1H-1,2,3-triazole-4-carboxylic acid], the IC50 was above 200 nM.

As to `CC(C)c1ccc(-c2ccc(Oc3[nH]nnc3C(=O)O)c(F)c2)cc1` [Example 107, 5-((3-fluoro-4′-isopropyl-[1,1′-biphenyl]-4-yl)oxy)-1H-1,2,3-triazole-4-carboxylic Acid], the IC50 fell in the range of 100 to 200 nM.

Regarding `NC(=O)c1ccc(-c2cccc(Oc3[nH]nnc3C(=O)O)c2)cc1` [Example 63, 5-((4′-carbamoyl-[1,1′-biphenyl]-3-yl)oxy)-1H-1,2,3-triazole-4-carboxylic Acid], the IC50 lay within 100 to 200 nM.

Turning to `COc1ccc(Oc2[nH]nnc2C(=O)O)cn1` [Example 70, 5-((6-methoxypyridin-3-yl)oxy)-1H-1,2,3-triazole-4-carboxylic Acid], the IC50 is above 200 nM.

With `O=C(O)c1nn[nH]c1Oc1ccc(-c2cccc3ccccc23)cc1` [Example 94, 5-(4-(1-naphthyl)phenoxy)-1H-1,2,3-triazole-4-carboxylic Acid], the IC50 is below 100 nM.

Turning to `Cc1nc(F)ccc1-c1ccc(Oc2[nH]nnc2C(=O)O)cc1` [Example 73, 5-(4-(6-fluoro-2-methylpyridin-3-yl)phenoxy)-1H-1,2,3-triazole-4-carboxylic Acid], the IC50 is below 100 nM.

For the compound `O=C(O)c1nn[nH]c1Oc1ccc(-c2ccc(-c3cccc(OC(F)F)c3)cc2)cc1` [Example 16, 5-((3″-(difluoromethoxy)-[1,1′:4′,1″-terphenyl]-4-yl)oxy)-1H-1,2,3-triazole-4-carboxylic Acid], the IC50 was below 100 nM.

Take `O=C(O)c1nn[nH]c1Oc1ccc(-c2cccc(F)c2F)cc1` [Example 34, 5-((2′,3′-difluoro-[1,1′-biphenyl]-4-yl)oxy)-1H-1,2,3-triazole-4-carboxylic Acid]: the IC50 is 100 to 200 nM.

As for `COc1ccc(-c2ccc(Oc3[nH]nnc3C(=O)O)cc2)c(OC)n1` [Example 101, 5-(4-(2,6-dimethoxypyridin-3-yl)phenoxy)-1H-1,2,3-triazole-4-carboxylic Acid], the IC50 is below 100 nM.

Source of the values: US11401246B2, “Triazole glycolate oxidase inhibitors” (CANTERO THERAPEUTICS, INC., priority 2018, dated 2022).
